Consider seven compounds from patent US20040258621A1, “Method of treating snoring and other obstructive breathing disorders” (priority 2002, published 2004).

For data set [1] the following is noted: cited from earlier work; for stability in acidic media: acid media.
For data set [2], the system named is heartburn symptoms and lesions caused by heartburn. As to conditions: according to the manufacturer AstraZeneca; cited from earlier work.
The conditions of data set [3]: cited from earlier work.
The conditions of data set [4]: +37° C., relative humidity 80%, 6 months; cited from earlier work.
For data set [5] the following is noted: especially at room temperature; cited from earlier work.
The test system of data set [6] is outpatients with significant snoring. The data set is described as follows: Open label study on 8 outpatients with significant snoring. It is filed as in vivo, human. To be noted: 30 mg, 35 to 90 days (mean 61 days). As to the method: An open label study was performed on 8 outpatients with significant snoring. The patients were treated with Prevacid 30 mg. for 30-90 days. The entry criteria were snoring with or without sleep apnea, documented by history, physical exam, and independent sleep lab studies. […] At baseline patients had all been placed on conservative nasal regimen with no improvement in their symptoms. […] At the end of treatment changes in global and spousal ratings of snoring were made along with investigator observations.
The demographics of the study group were eight males no females; a mean age of 50.6 years with a range of 32-70; a mean weight of 206 lbs with a range of 160-260; and there were 6 white, 1 black, and 1 Asian in the group. At baseline the investigator made the diagnosis of GERD in 4 patients. Spousal ratings of snoring were 3 moderate and 5 severe; 4 had moderate or severe sleep apnea; and all 8 had daytime sleepiness.
The duration of treatment ranged from 35 to 90 days with a mean of 61 days. At conclusion of the study, 7 of 8 patients had moderate or marked improvement in snoring. […] 8 of 8 patients had marked improvement in their sleep with less waking and less daytime fatigue.

Data set [7] relates to snoring in a nocturnal breathing obstructed person with GERD. The data set is described as follows: Case study of a snoring patient with GERD. Format: in vivo, human. As to conditions: for beneficial effect on snoring: throughout the subsequent year. The text has this:
A person, 5 feet 3 inches tall and moderately overweight reported a 15-20 year history of progressively increasing snoring. The intensity of their snoring was well documented by their spouse, who experienced disturbed sleep as a result of their spouse's snoring, occasionally requiring them to waken the patient in order for them to obtain relief. The patient gave no history of naso-pharyngeal structural abnormalities or surgery (other than third molar extraction) and had experienced no breathing disorder.
The patient complained to their physician of a chronic scratchiness in their throat, thought to be a result of gastroesophageal reflux disease (GERD). To treat the GERD symptoms, the patient was placed on Prevacid (Lansoprazole) 15 mg once daily.

Where a name gives a salt, the structure may show the parent alone. Read-outs that look alike come from different tables or passages of the source.

Take `COc1ccc2c(c1)nc([S@@+]([O-])Cc1ncc(C)c(OC)c1C)[n]2[Mg][n]1c([S@@+]([O-])Cc2ncc(C)c(OC)c2C)nc2cc(OC)ccc21.O.O.O` [esomeprazole magnesium, bis(5-methoxy-2-[(S)-[(4-methoxy-3,5-dimethyl-2-pyridinyl)methyl]sulfinyl]-1H-benzimidazole-1-yl) magnesium trihydrate]: in data set [1], the “stability in acidic media” value is “rapidly degrades” and the “stability under alkaline conditions” value was “acceptable stability”. Further, in data set [2], the “rates of healing of certain lesions caused by heartburn versus PRILOSEC” value is “higher rates of healing” and the “reduction of heartburn symptoms versus PRILOSEC” value is recorded as “faster”. In addition, the solubility result in data set [3] (water) is on record as “slightly soluble”.
Take `COc1ccc2[nH]c([S+]([O-])Cc3ncc(C)c(OC)c3C)nc2c1` (stereo not drawn) [omeprazole, 5-methoxy-2-[[(4-methoxy-3,5-dimethyl-2-pyridinyl)methyl]sulfinyl]-1H-benzimidazole]: the “substance converted to degradation products” value in data set [4] is given as “about 6%”.
With `COc1ccc2[nH]c([S+]([O-])Cc3ncc(C)c(OC)c3C)nc2c1` (stereo not drawn) [Omeprazole form A, omeprazole], the “thermodynamic stability versus omeprazole form B” value in data set [5] is “thermodynamically more stable”.
As for `Cc1c(OCC(F)(F)F)ccnc1C[S+]([O-])c1nc2ccccc2[nH]1` (stereo not drawn) [Prevacid (Lansoprazole), 2-[[[3-methyl-4-(2,2,2-trifluoroethoxy)-2-pyridyl]methyl]sulfinyl]benzimidazole], in data set [6], the “patients with marked improvement in their sleep with less waking and less daytime fatigue” value is 8 of 8; the “patients with moderate or marked improvement in snoring” value is reported as 7 of 8. For the same compound, in data set [7] (15 mg once daily), the “intensity of the patient's snoring (spouse's observation)” value was “gradual decline”. Further, the throat scratchiness entry in data set [7] (15 mg once daily, after beginning treatment) is recorded as “declined promptly”. Besides, the “benefit on snoring sustained for the duration of dosing” value in data set [7] (15 mg once daily, approximately 12 months) is “moderate to marked benefit”. In data set [7] (dosing interrupted for several weeks), the “snoring after dosing was interrupted” value is on record as “resumption of noticeable snoring intensity”.
In the case of `CN/C(=N/CCSCc1nc[nH]c1C)NC#N` [Tagamet (Cimetidine), cimetidine], in data set [7], the “beneficial effect on snoring” value is “maintained”.
Regarding `COCCCOc1ccnc(C[S+]([O-])c2nc3ccccc3[nH]2)c1C` (stereo not drawn) [Rabeprazole sodium, 2-[[[4-(3-methoxypropoxy)-3-methyl-2-pyridinyl]-methyl]sulfinyl]-1H-benzimidazole sodium salt], the “stability in acidic media” value in data set [1] is “rapidly degraded”. For the same compound, the “stability under alkaline conditions” value in data set [1] is given as “more stable”. The solubility result was “freely soluble” in data set [3] (chloroform); “freely soluble” in data set [3] (ethanol); “insoluble” in data set [3] (ether); “freely soluble” in data set [3] (ethyl acetate); “very soluble” in data set [3] (methanol); “insoluble” in data set [3] (n-hexane). Also, the solubility result in data set [3] (water) was “very soluble”.
On to `NC(N)=Nc1nc(CSCCC(N)=NS(N)(=O)=O)cs1` [Pepcid AC (Famotidine), famotidine], for which the “beneficial effect on snoring” value in data set [7] was “maintained”.
